From patent US7473783B2, “Bicyclic pyrazolo protein kinase modulators” (SGX Pharmaceuticals, Inc., priority 2003, dated 2009)

Biological target: T1, autophosphorylated FLT3 kinase domain (FLT3KD) (Homo sapiens, UniProt P36888)
T1 construct: purified and autophosphorylated FLT3 kinase domain (FLT3KD); 6xHis (C); made in house; host or cells: baculovirus, SF9 / SF21 insect cells
T1 sequence (P36888 610-943 limits assumed): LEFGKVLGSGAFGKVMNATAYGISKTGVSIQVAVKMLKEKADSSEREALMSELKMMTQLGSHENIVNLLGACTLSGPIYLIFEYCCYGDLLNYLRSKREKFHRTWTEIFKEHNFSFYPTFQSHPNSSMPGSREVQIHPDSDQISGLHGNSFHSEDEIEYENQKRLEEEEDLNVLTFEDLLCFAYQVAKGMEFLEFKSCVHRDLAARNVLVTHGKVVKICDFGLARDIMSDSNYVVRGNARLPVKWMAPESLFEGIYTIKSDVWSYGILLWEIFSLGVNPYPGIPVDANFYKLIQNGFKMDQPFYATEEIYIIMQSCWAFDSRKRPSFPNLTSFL
Test: FLT3 kinase assay (PK/LDH coupled, NADH loss at 340 nm)
Assay type: biochemical
Settings: 250 μM ATP
Excerpt: Although this example presents the use of the FLT3 kinase domain, the kinase assays may use various forms of FLT3, including, for example, the entire molecule, the kinase domain, or a portion thereof.
Materials : Substrate peptide=Poly (Glu, Tyr) 4:1=poly EY (Sigma P-0275); βNADH (Sigma CAT#N-8129, FW=709.4); 2M MgCl2; 1M HEPES buffer, pH 7.5; Phosphoenolpyruvate=PEP (Sigma CAT#P-7002, FW=234); Lactate dehydrogenase=LDH (Worthington Biochemical CAT#2756); Pyruvate Kinase=PK (Sigma CAT#P-9136); ATP (Sigma CAT#A-3377, FW=551); Greiner 384-well UV star plate; and purified and autophosphorylated FLT3 kinase domain (FLT3KD).
Stock Solutions: 10 mM NADH (7.09 mg/mL in miliQH2O) make fresh daily; 1 mg/mL Poly EY (in miliQH2O) store at −20° C.; 200mM HEPES buffer, pH 7.5 (10 ml 1M stock+40 ml miliQH2O) supplemented with 1 mM DTT; 100 mM MgCl2 (5 mL+95 ml dH2)); 100 mM PEP (23.4 mg/mL in dH2O) store at −20° C.; 10 mM ATP (5.51 mg/mL in dH2O) store at −20° C. (dilute 1 mL into total of 10 mL miliQH2O daily=1 mM ATP working stock); 1000 U/mL PK (U/mg varies with lot) flash-freeze under liquid N2 and store at −80° C.; 1000 U/mL LDH (U/mg varies with lot) flash-freeze under liquid N2 and store at −80° C.
Standard Assay Setup for 384-well format (50 μl reaction): 300 μM NADH; 10 mM MgCl2; 2 mM PEP; 45 U/mL PK; 60 U/mL LDH; 1 mg/mL Poly EY; 2.5 μL test compound (in DMSO); 10 μg/mL autophosphorylated FLT3 kinase domain; 250 μM ATP*; 100 mM HEPES buffer; QS with miliQ dH2O to 50 μL. Positive controls contained DMSO with no test compound. Negative controls contained 5 μl of 0.5M EDTA (50 mM in the assay). The kinase reaction was initiated at time t=0 by the addition of ATP.
The unphosphorylated FLT3KD that was produced required pre-incubation with MgATP to allow for autophosphorylation and full kinase activity. The autophosphorylation reaction was run in 100 mM HEPES buffer, 1 mM DTT, and 1 mg/mL FLT3KD by the addition of ATP and MgCl2 to a final concentration of 2 mM and 10 mM respectively. The reaction was allowed to proceed at room temperature for 90 minutes, and then was quenched by the addition of EDTA to 50 mM. The autophosphorylated protein was then aliquotted and flash frozen in liquid N2 for use.
The activity was measured by following the time-dependent loss of NADH by absorbance spectroscopy at 340 nm. The linear portion of the resulting progress curve was then be analyzed by linear regression to get the activity in absorbance units/time, reported as the slope of that best fit line (moles/unit time can be calculated from using molar extinction coeffecient for NADH at 340 nm, 6250M^−1cm^−1).
Data was analyzed using the equation: Z′=1−[3*(σ++σ−)/|μ+−μ−|], where μ denotes the mean and σ the standard deviation. The subscript designates positive or negative controls. The Z′ score for a robust screening assay should be ≧0.50. The typical threshold=μ+−3*σ+. Any value that falls below the threshold was designated a “hit.”
The dose response was measured using the equation: y=min+{(max−min)/1+10^[compound]-logIC50)}, where y is the observed initial slope, max is the slope in the absence of inhibitor, min is the slope at infinite inhibitor, and the IC50 is the [compound] that corresponds to ½ the total observed amplitude (Amplitude=max−min). The IC50 is related to the Ki by the following equation: IC50=Ki(1+[ATP]/Km).
To measure modulation, activation, or inhibition of FLT3KD, a test compound was added to the assay at a range of concentrations. Inhibitors may inhibit FLT3KD activity at an IC50 in the micromolar range, the nanomolar range, and, for example, in the subnanomolar range. […]

IC50 (Table 5) [µM] | IC50 (Table 6) [µM] | SMILES
1 to 10 |  | CC(=O)N1CCC(C(=O)Nc2nc3[nH]nc(-c4ccccc4)c3s2)CC1 [drawing 251]
1 to 10 |  | O=C(Nc1nc2[nH]nc(-c3ccccc3)c2s1)c1cccc(Br)c1 [drawing 249]
 | < 0.1 | O=C(Nc1nc2[nH]nc(-c3ccc(O)cc3)c2s1)C1CC1 [drawing 254]
1 to 10 |  | COCCOCC(=O)Nc1nc2[nH]nc(-c3ccccc3)c2s1 [drawing 250]
 | < 0.1 | O=C(Nc1nc2[nH]nc(-c3ccccc3)c2s1)c1ccno1
< 1 |  | O=C(Nc1nc2[nH]nc(-c3ccccc3)c2s1)c1ccncc1 [drawing 248]
 | > 1 | O=C(Nc1nc2[nH]nc(-c3ccccc3)c2s1)c1cccc(Br)c1 [drawing 259]

The remaining lines, values behind:

SMILES | IC50 (Table 5) [µM] | IC50 (Table 6) [µM]
O=C(Nc1nc2[nH]nc(-c3cccc(C(F)(F)F)c3)c2s1)c1ccccc1 | 1 to 10 | 
O=C(Nc1nc2[nH]nc(-c3ccco3)c2s1)c1ccccc1 |  | 0.1 to 1
CC(C)(C)c1n[nH]c2nc(NC(=O)c3ccccc3)sc12 |  | 0.1 to 1
O=C(Nc1nc2[nH]nc(-c3ccncc3)c2s1)c1ccccc1 |  | < 0.1
O=C(Nc1nc2[nH]nc(-c3ccccn3)c2s1)c1ccco1 |  | 0.1 to 1
CC(C)(C)c1n[nH]c2nc(NC(=O)c3ccncc3)sc12 |  | > 1
O=C(Nc1nc2[nH]nc(-c3ccc(Cl)cc3)c2s1)c1ccccc1 [drawing 246] | < 1 | 
